Assay results taken from PubChem BioAssay AID2060497 (Molecular Pharmacology Branch, DTP, NCI, 2025).

Test system: 317291-083-R-J1-PDC complex spheroids, viability
Test: Anticancer human tumor 317291-083-R-J1-PDC patient-derived soft tissue sarcoma cell line growth inhibition [GQUAD]
Conditions: for IC50: curve of first compound; for viability, T/C: stronger effect = lower value
Procedure, shortened: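 Viability of tumor cells grown as complex spheroids with endothelial and stromal cells, exposed to drug combinations. Top concentration at or near clinical Cmax (else 10 microM), diluted in half-log increments.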

[1] = second compound 0.0316 µM, first compound 0.0316 µM
[2] = second compound 0.0316 µM, first compound 0.1 µM
[3] = second compound 0.0316 µM, first compound 0.316 µM
[4] = second compound 0.0316 µM, first compound 1 µM
[5] = second compound 0.0316 µM, first compound 3.16 µM
[6] = second compound 0.0316 µM, first compound 10 µM
[7] = second compound 0.1 µM, first compound 0.0316 µM
[8] = second compound 0.1 µM, first compound 0.1 µM
[9] = second compound 0.1 µM, first compound 0.316 µM
[10] = second compound 0.1 µM, first compound 1 µM
[11] = second compound 0.1 µM, first compound 3.16 µM
[12] = second compound 0.1 µM, first compound 10 µM
[13] = second compound 0.316 µM, first compound 0.0316 µM
[14] = second compound 0.316 µM, first compound 0.1 µM
[15] = second compound 0.316 µM, first compound 0.316 µM
[16] = second compound 0.316 µM, first compound 1 µM
[17] = second compound 0.316 µM, first compound 3.16 µM
[18] = second compound 0.316 µM, first compound 10 µM
[19] = second compound 1 µM, first compound 0.0316 µM
[20] = second compound 1 µM, first compound 0.1 µM
[21] = second compound 1 µM, first compound 0.316 µM
[22] = second compound 1 µM, first compound 1 µM
[23] = second compound 1 µM, first compound 3.16 µM
[24] = second compound 1 µM, first compound 10 µM
[25] = second compound 3.16 µM, first compound 0.0316 µM
[26] = second compound 3.16 µM, first compound 0.1 µM
[27] = second compound 3.16 µM, first compound 0.316 µM
[28] = second compound 3.16 µM, first compound 1 µM
[29] = second compound 3.16 µM, first compound 3.16 µM
[30] = second compound 3.16 µM, first compound 10 µM
[31] = second compound 10 µM, first compound 0.0316 µM
[32] = second compound 10 µM, first compound 0.1 µM
[33] = second compound 10 µM, first compound 0.316 µM
[34] = second compound 10 µM, first compound 1 µM
[35] = second compound 10 µM, first compound 3.16 µM
[36] = second compound 10 µM, first compound 10 µM
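Further: spheroids exposed to compounds for one week before readout.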
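Wherever viability, T/C is given: percent viability relative to DMSO vehicle wells taken as 100%.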

CC1COCCN1c1cc(-c2ccnn2C)c2ccnc(-c3ccn[nH]3)c2n1 (centres undefined) + Cc1[nH]c2ccc(F)cc2c1-c1nc2c3cccnc3c3ncccc3c2[nH]1
IC50 (second compound 0.0316 µM): 88.8 nM
IC50 (second compound 0.1 µM): 75.1 nM
IC50 (second compound 0.316 µM): 64.4 nM
IC50 (second compound 1 µM): 62.5 nM
IC50 (second compound 3.16 µM): 65.4 nM
IC50 (second compound 10 µM): 70.9 nM
viability, T/C [1]: 87.9%
viability, T/C [2]: 45.6%
viability, T/C [3]: 16.4%
viability, T/C [4]: 11.7%
viability, T/C [5]: 13%
viability, T/C [6]: 15.1%
viability, T/C [7]: 89.4%
viability, T/C [8]: 36.9%
viability, T/C [9]: 14.7%
viability, T/C [10]: 13.8%
viability, T/C [11]: 13.6%
viability, T/C [12]: 11.5%
viability, T/C [13]: 77.7%
viability, T/C [14]: 33%
viability, T/C [15]: 13.8%
viability, T/C [16]: 14.1%
viability, T/C [17]: 11.5%
viability, T/C [18]: 14.4%
viability, T/C [19]: 76.1%
viability, T/C [20]: 31.9%
viability, T/C [21]: 18%
viability, T/C [22]: 14.8%
viability, T/C [23]: 15.3%
viability, T/C [24]: 10.1%
viability, T/C [25]: 60.7%
viability, T/C [26]: 43.7%
viability, T/C [27]: 13.3%
viability, T/C [28]: 9.76%
viability, T/C [29]: 9.63%
viability, T/C [30]: 14.1%
viability, T/C [31]: 89%
viability, T/C [32]: 33.4%
viability, T/C [33]: 13.8%
viability, T/C [34]: 8.91%
viability, T/C [35]: 10%
viability, T/C [36]: 12.1%

COc1cc(C2c3cc4c(cc3C(OC3OC5COC(C)OC5C(O)C3O)C3COC(=O)C23)OCO4)cc(OC)c1O (centres undefined) + Cc1cnc(CNC(=O)c2c(=O)c3ccc(N4CCCN(C)CC4)nc3n3c2sc2ccccc23)cn1
IC50 (second compound 0.0316 µM): 233 nM
IC50 (second compound 0.1 µM): 69.2 nM
IC50 (second compound 0.316 µM): 66.7 nM
IC50 (second compound 1 µM): < 31.6 nM
IC50 (second compound 3.16 µM): < 31.6 nM
IC50 (second compound 10 µM): < 31.6 nM
viability, T/C [1]: 81.6%
viability, T/C [2]: 68.3%
viability, T/C [3]: 41.4%
viability, T/C [4]: 27.7%
viability, T/C [5]: 15.4%
viability, T/C [6]: 11.6%
viability, T/C [7]: 57.5%
viability, T/C [8]: 46.3%
viability, T/C [9]: 35.3%
viability, T/C [10]: 24.9%
viability, T/C [11]: 15.6%
viability, T/C [12]: 9.12%
viability, T/C [13]: 70.5%
viability, T/C [14]: 39.3%
viability, T/C [15]: 19.3%
viability, T/C [16]: 18.8%
viability, T/C [17]: 16.2%
viability, T/C [18]: 10.7%
viability, T/C [19]: 35.9%
viability, T/C [20]: 28.4%
viability, T/C [21]: 22.7%
viability, T/C [22]: 18.7%
viability, T/C [23]: 9.1%
viability, T/C [24]: 8.25%
viability, T/C [25]: 22.9%
viability, T/C [26]: 41.3%
viability, T/C [27]: 14.7%
viability, T/C [28]: 13.1%
viability, T/C [29]: 9.56%
viability, T/C [30]: 3.72%
viability, T/C [31]: 28.6%
viability, T/C [32]: 14.6%
viability, T/C [33]: 9.56%
viability, T/C [34]: 10.8%
viability, T/C [35]: 5.33%
viability, T/C [36]: 11.2%
